Measured values: PubChem BioAssay (NCI)
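A five-concentration, 48-hour dose response in 96-well plates underlies each endpoint, interpolated linearly between surrounding concentrations. TGI: total growth inhibition.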

Tests used:
Assay in all cases: DTP human tumour cell line panel, 48 h
[1] = test system: 786-0 renal
[2] = test system: A498 renal
[3] = test system: A549 NSCLC
[4] = test system: ACHN renal
[5] = test system: CAKI-1 renal
[6] = test system: CCRF-CEM leukemia
[7] = test system: COLO 205 colon
[8] = test system: DLD-1 colon
[9] = test system: DMS 114 small cell lung
[10] = test system: DMS 273 small cell lung
[11] = test system: EKVX NSCLC
[12] = test system: HCC-2998 colon
[13] = test system: HCT-116 colon
[14] = test system: HCT-15 colon
[15] = test system: HL-60(TB) leukemia
[16] = test system: HOP-18 NSCLC
[17] = test system: HOP-62 NSCLC
[18] = test system: HOP-92 NSCLC
[19] = test system: HT29 colon
[20] = test system: IGROV1 ovarian
[21] = test system: KM12 colon
[22] = test system: KM20L2 colon
[23] = test system: LOX IMVI melanoma
[24] = test system: LXFL 529 NSCLC
[25] = test system: M14 melanoma
[26] = test system: M19-MEL melanoma
[27] = test system: MALME-3M melanoma
[28] = test system: MOLT-4 leukemia
[29] = test system: NCI-H226 lung
[30] = test system: NCI-H23 lung
[31] = test system: NCI-H460 lung
[32] = test system: NCI-H522 lung
[33] = test system: OVCAR-3 ovarian
[34] = test system: OVCAR-4 ovarian
[35] = test system: OVCAR-5 ovarian
[36] = test system: OVCAR-8 ovarian
[37] = test system: RPMI-8226 leukemia
[38] = test system: RXF-631 renal
[39] = test system: SF-268 CNS
[40] = test system: SF-295 CNS
[41] = test system: SF-539 CNS
[42] = test system: SK-MEL-2 melanoma
[43] = test system: SK-MEL-28 melanoma
[44] = test system: SK-MEL-5 melanoma
[45] = test system: SK-OV-3 ovarian
[46] = test system: SN12C renal
[47] = test system: SNB-19 CNS
[48] = test system: SNB-75 CNS
[49] = test system: SNB-78 CNS
[50] = test system: SR leukemia
[51] = test system: SW-620 colon
[52] = test system: TK-10 renal
[53] = test system: U251 CNS
[54] = test system: UACC-257 melanoma
[55] = test system: UACC-62 melanoma
[56] = test system: UO-31 renal
[57] = test system: K-562 leukemia
[58] = test system: RXF 393 renal
[59] = test system: XF 498 CNS

Measured: TGI

C[n+]1cn(CC(=O)c2ccccc2)c(C(N)=O)c1N
74.1 µM: [13]
63.2 µM: [26]
29.4 µM: [51]
64.6 µM: [9]
not listed: [57] | [58] | [59]
> 100 µM: all other assays above

O=C1C=CC2(CCC23C=CC(=O)O3)O1 (stereo not given)
not listed: [5] | [10] | [18] | [44] | [50]
> 100 µM: all other assays above
